Here are results for 7 molecules from patent US20250179047A1, “5-[7-(3,4-DIHYDRO-1H-ISOQUINOLINE-2-CARBONYL)-1,2,3,4 TETRAHYDROISOQUINOLIN-6-YL]-1H-PYRROLE-3-CARBOXAMIDE DERIVATIVES, PHARMACEUTICAL COMPOSITIONS CONTAINING THEM AND THEIR USES AS PRO-APOPTOTIC AGENTS” (LES LABORATOIRES SERVIER, priority 2022, published 2025).

Assay [1] deals with BCL2 G101V. Kind of assay: TR-FRET competitive binding assay, BCL2 G101V. Also noted: species or system human. The following applies: ratio Ki BCL2 G101V / Ki BCL2 WT. The method in brief: (§1)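 Terbium-labelled N-terminal Halo-fusion BCL2 or BCLXL (E. coli), 0.5 nM, competed against fluorescein-labelled PUMA peptide (2 or 20 nM) for 2 h at 23° C in 50 mM Hepes pH 7.5, 150 mM NaCl, 5% DMSO. TR-FRET 520/495 nm ratio gave IC50 by four-parameter fit; Ki derived from IC50.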

The target of assay [2] is BCL2 G101V (Homo sapiens, UniProt P10415, G101V). Kind of assay: TR-FRET competitive binding assay, BCL2 G101V. The following applies: BCL2 G101V; Ki determined from IC50; read-out: TR_FRET EKI_Bcl2 G101V. The method in brief:
as §1
Background: Time-resolved FRET reads energy transfer from a long-lived donor to a nearby acceptor.

Assay [3] addresses BCL2 D103Y (Homo sapiens, UniProt P10415, D103Y). Description: TR-FRET competitive binding assay, BCL2 D103Y. The following applies: Ki determined from IC50, read-out: TR_FRET EKI_Bcl2 D103Y. The method in brief:
as §1

Assay [4] concerns the target BCL2 D111A (Homo sapiens, UniProt P10415, D111A). Kind of assay: TR-FRET competitive binding assay, BCL2 D111A. The note with it: Ki determined from IC50, read-out: TR_FRET EKI_Bcl2 D111A. An outline of the steps: as §1
The test system of assay [5] is KMS-12-PE Bcl-2 WT. Description: In vitro cytotoxicity CellTiter-Glo 48 h, KMS-12-PE Bcl-2 WT. It counts as cell-based. The note with it: Homo sapiens, KMS-12-PE, C50 = concentration needed to reach 50% of the cellular viability. An outline of the steps: (§2)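 KMS-12-PE myeloma cells were lentivirally transduced with wild-type or G101V-mutant Bcl-2 and sorted by TagRFP. They were exposed to compounds as 11-point dose responses for 48 h at 37 °C, 5% CO2. Viability was read by CellTiter-Glo ATP luminescence, and C50 was the concentration giving 50% viability.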

Assay [6] has as its system KMS-12-PE Bcl-2 G101V. Description: In vitro cytotoxicity CellTiter-Glo 48 h, KMS-12-PE Bcl-2 G101V. The following applies: for Ratio (G101V/WT): C50 KMS-12-PE Bcl-2 G101V over C50 KMS-12-PE Bcl-2 WT; for IC50: Homo sapiens, KMS-12-PE, 48 h, CellTiter-Glo, C50 = concentration needed to reach 50% of the cellular viability. It counts as cell-based. An outline of the steps: as §2
A general note: In ATP-based viability assays light output follows the ATP content of the culture.

Assay [7] deals with BCLXL WT (Homo sapiens (Human), UniProt Q07817). Kind of assay: TR-FRET competitive binding assay, BCLXL WT. The note with it: for Ki: BCLXL WT, Ki determined from IC50, read-out: TR_FRET EKI BclxL; for TR_FRET EKI BCLxL/WT selectivty ratio: ratio Ki BCLxL / Ki BCL2 WT. The method in brief:
as §1

In assay [8] the target is BCL2 WT (Homo sapiens (Human), UniProt P10415). Kind of assay: TR-FRET competitive binding assay, BCL2 WT. The following applies: Ki determined from IC50, read-out: TR_FRET EKI_Bcl2 WT. The method in brief:
as §1

For assay [9], the target named is BCL2 F104I (Homo sapiens, UniProt P10415, F104I). Description: TR-FRET competitive binding assay, BCL2 F104I. The following applies: Ki determined from IC50, read-out: TR_FRET EKI_Bcl2 F104I. An outline of the steps:
as §1

Sequence of BCLXL WT (Q07817 other isoform, or with tags, fused parts or gaps): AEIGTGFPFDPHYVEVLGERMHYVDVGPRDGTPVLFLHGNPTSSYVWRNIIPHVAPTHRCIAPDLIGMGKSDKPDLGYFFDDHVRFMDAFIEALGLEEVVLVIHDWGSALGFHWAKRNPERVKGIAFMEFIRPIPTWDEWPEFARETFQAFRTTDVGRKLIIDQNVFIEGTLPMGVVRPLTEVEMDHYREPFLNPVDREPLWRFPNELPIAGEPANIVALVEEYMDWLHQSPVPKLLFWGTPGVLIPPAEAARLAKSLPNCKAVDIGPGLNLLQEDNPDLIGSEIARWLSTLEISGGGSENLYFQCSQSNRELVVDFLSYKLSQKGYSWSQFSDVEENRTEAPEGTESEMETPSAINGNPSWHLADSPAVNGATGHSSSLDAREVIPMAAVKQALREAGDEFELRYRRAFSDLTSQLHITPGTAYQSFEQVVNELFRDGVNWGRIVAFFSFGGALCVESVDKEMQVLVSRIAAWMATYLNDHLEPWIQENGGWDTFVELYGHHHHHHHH

As to `Cc1c(N(C(=O)c2cc(-c3cc4c(cc3C(=O)N3Cc5ccccc5C[C@H]3C)CN(C(=O)Cc3ccc(OCCN(C)C5COC5)cc3)CC4)n(C)c2C)c2ccc(O)cc2)cc(C#N)n1C` [Example 60, N-(5-cyano-1,2-dimethyl-1H-pyrrol-3-yl)-N-(4-hydroxyphenyl)-1,2-dimethyl-5-{2-[2-(4-{2-[methyl(oxetan-3-yl)amino]ethoxy}phenyl)acetyl]-7-[(3R)-3-methyl-1,2,3,4-tetrahydroisoquinoline-2-carbonyl]-1,2,3,4-tetrahydroisoquinolin-6-yl}-1H-pyrrole-3-carboxamide], the “TR_FRET EKI G101V/WT selectivty ratio” value in assay [1] worked out at 3.5. Further, the Ki in assay [2] turned out to be 0.2 nM; in [3], 0.14 nM; in assay [4], 0.09 nM; in assay [7], 1 nM; in assay [8] it was 0.05 nM; in assay [9], 0.21 nM. In addition, the results for the IC50 in assay [5] and in [6] were 0.0075 µM and 0.0367 µM, respectively. In assay [6], the “Ratio (G101V/WT)” value is listed as 4.91. The “TR_FRET EKI BCLxL/WT selectivty ratio” value in assay [7] is recorded as 19.2.
As to `Cc1c(N(C(=O)c2cc(-c3cc4c(cc3C(=O)N3Cc5ccccc5C[C@H]3CN3CCCCC3)CN(C(=O)Cc3ccc(O[C@H]5CCN(CCF)C5)cc3F)CC4)n(C)c2C)c2ccc(O)cc2)cc(C#N)n1C` [Example 89, N-(5-cyano-1,2-dimethylpyrrol-3-yl)-5-{2-[2-(2-fluoro-4-{[(3S)-1-(2-fluoroethyl)pyrrolidin-3-yl]oxy}phenyl)acetyl]-7-{[(3S)-3-(piperidin-1-ylmethyl)-3,4-dihydro-1H-isoquinolin-2-yl]carbonyl}-3,4-dihydro-1H-isoquinolin-6-yl}-N-(4-hydroxyphenyl)-1,2-dimethylpyrrole-3-carboxamide], the “TR_FRET EKI G101V/WT selectivty ratio” value in [1] worked out at 4.3. Further, the Ki is 0.3 nM in assay [2]; 0.18 nM in assay [3]; 0.26 nM in assay [4]; 1.9 nM in assay [7]; 0.07 nM in assay [8]; 0.43 nM in [9]. Moreover, the figures for the IC50 in assay [5] and in [6] were 0.0069 µM and 0.0358 µM, respectively. The “Ratio (G101V/WT)” value in assay [6] is given as 5.17. The “TR_FRET EKI BCLxL/WT selectivty ratio” value in [7] was found to be 29.2.
`Cc1c(N(C(=O)c2cc(-c3cc4c(cc3C(=O)N3Cc5ccccc5C[C@H]3CN3CCCCC3)CN(C(=O)Cc3ccc(OCC(C)N5CCOCC5)cc3F)CC4)n(C)c2C)c2ccc(O)cc2)cc(C#N)n1C` (single isomer, unassigned) [Example 135, N-(5-cyano-1,2-dimethyl-1H-pyrrol-3-yl)-5-[2-(2-{2-fluoro-4-[(2S or R)-2-(morpholin-4-yl)propoxyphenyl}acetyl)-7-[(3S)-3-[(piperidin-1-yl)methyl]-1,2,3,4-tetrahydroisoquinoline-2-carbonyl]-1,2,3,4-tetrahydroisoquinolin-6-yl]-N-(4-hydroxyphenyl)-1,2-dimethyl-1H-pyrrole-3-carboxamide]: in [1], the “TR_FRET EKI G101V/WT selectivty ratio” value is on record as 5.8. For the same molecule, the Ki is 0.4 nM in assay [2]; 0.21 nM in assay [3]; 0.17 nM in assay [4]; 4.5 nM in [7]; 0.07 nM in [8]; 0.34 nM in assay [9]. Besides, the IC50 (commonly the concentration needed to halve the response being measured) in assay [5] was determined as 0.0044 µM; in assay [6], 0.0339 µM. Further, the “Ratio (G101V/WT)” value in assay [6] is listed as 7.72. In addition, the “TR_FRET EKI BCLxL/WT selectivty ratio” value in [7] is given as 60.8.
As to `Cc1c(N(C(=O)c2cc(-c3cc4c(cc3C(=O)N3Cc5ccccc5C[C@H]3CCN3CCCCC3)CN(C(=O)Cc3ccc(OCCN5CCOCC5)cc3F)CC4)n(C)c2C)c2ccc(O)cc2)cc(C#N)n1C` [Example 74, N-(5-cyano-1,2-dimethyl-1H-pyrrol-3-yl)-5-[2-(2-{2-fluoro-4-[2-(morpholin-4-yl)ethoxy]phenyl}acetyl)-7-[(3S)-3-[2-(piperidin-1-yl)ethyl]-1,2,3,4-tetrahydroisoquinoline-2-carbonyl]-1,2,3,4-tetrahydroisoquinolin-6-yl]-N-(4-hydroxyphenyl)-1,2-dimethyl-1H-pyrrole-3-carboxamide], the “TR_FRET EKI G101V/WT selectivty ratio” value in assay [1] was 2.8. In addition, the Ki in [2] came out at 0.1 nM; in assay [3] it was 0.07 nM; in [4], 0.09 nM; in [7], 1.1 nM; in assay [8], 0.02 nM; in assay [9], 0.04 nM. Also, the IC50 in assay [5] stood at 0.0375 µM; in [6] it was 0.0885 µM. Besides, the “Ratio (G101V/WT)” value in assay [6] was determined as 2.36. Further, the “TR_FRET EKI BCLxL/WT selectivty ratio” value in assay [7] amounted to 52.4.
Regarding `Cc1c(N(C(=O)c2cc(-c3cc4c(cc3C(=O)N3Cc5ccccc5C[C@H]3C)CN(C(=O)Cc3ccc(OCCN5CCN6CCOC[C@@H]6C5)cc3)CC4)n(C)c2C)c2ccc(O)cc2)cc(C#N)n1C` [Example 36, 5-{2-[2-(4-{2-[(9aS)-octahydropyrazino[2,1-c][1,4]oxazin-8-yl]ethoxy}phenyl)acetyl]-7-[(3R)-3-methyl-1,2,3,4-tetrahydroisoquinoline-2-carbonyl]-1,2,3,4-tetrahydroisoquinolin-6-yl}-N-(5-cyano-1,2-dimethyl-1H-pyrrol-3-yl)-N-(4-hydroxyphenyl)-1,2-dimethyl-1H-pyrrole-3-carboxamide], the “TR_FRET EKI G101V/WT selectivty ratio” value in assay [1] is given as 2.5. Also, the Ki in assay [2] was determined as 0.3 nM; in assay [3] it was 0.33 nM; in assay [4], 0.06 nM; in [7] it was 1.4 nM; in assay [8], 0.11 nM; in assay [9], 0.16 nM. In addition, the IC50 in assay [5] amounted to 0.0103 µM; in assay [6], 0.0386 µM. Also, in [6], the “Ratio (G101V/WT)” value is on record as 3.75. The “TR_FRET EKI BCLxL/WT selectivty ratio” value in [7] was 12.7.
Turning to `Cc1c(N(C(=O)c2cc(-c3cc4c(cc3C(=O)N3Cc5ccccc5C[C@H]3C)CN(C(=O)Cc3ccc(CCN5CCOCC5)cc3)CC4)n(C)c2C)c2ccc(O)cc2)cc(C#N)n1C` [Example 38, N-(5-cyano-1,2-dimethylpyrrol-3-yl)-N-(4-hydroxyphenyl)-1,2-dimethyl-5-(7-{[(3R)-3-methyl-3,4-dihydro-1H-isoquinolin-2-yl]carbonyl}-2-(2-{4-[2-(morpholin-4-yl)ethyl]phenyl}acetyl)-3,4-dihydro-1H-isoquinolin-6-yl)pyrrole-3-carboxamide], the “TR_FRET EKI G101V/WT selectivty ratio” value in assay [1] stood at 4.8. In addition, the Ki in assay [2] is 0.5 nM; in [3] it was 0.32 nM; in assay [4], 0.15 nM; in assay [7], 1 nM; in [8], 0.1 nM; in assay [9], 0.82 nM. In addition, the IC50 came out at 0.0091 µM in assay [5] and 0.0509 µM in assay [6]. The “Ratio (G101V/WT)” value in [6] is on record as 5.57. In addition, the “TR_FRET EKI BCLxL/WT selectivty ratio” value in assay [7] was 10.0.
For the molecule `Cc1c(N(C(=O)c2cc(-c3cc4c(cc3C(=O)N3Cc5ccccc5C[C@H]3C)CN(C(=O)Cc3ccc(OCCN5C[C@H](C)O[C@@H](C)C5)cc3)CC4)n(C)c2C)c2ccc(O)cc2)cc(C#N)n1C` (single isomer, unassigned) [Example 42, N-(5-cyano-1,2-dimethyl-1H-pyrrol-3-yl)-5-{2-[2-(4-{2-[(2R or S,6R or S)-2,6-dimethylmorpholin-4-yl]ethoxy}phenyl)acetyl]-7-[(3R)-3-methyl-1,2,3,4-tetrahydroisoquinoline-2-carbonyl]-1,2,3,4-tetrahydroisoquinolin-6-yl}-N-(4-hydroxyphenyl)-1,2-dimethyl-1H-pyrrole-3-carboxamide], in assay [1], the “TR_FRET EKI G101V/WT selectivty ratio” value worked out at 1.8. The Ki in assay [2] came out at 0.3 nM; in [3] it was 0.62 nM; in assay [4], 0.36 nM; in assay [7], 3 nM; in assay [8], 0.18 nM; in assay [9] it was 0.76 nM. The IC50 amounted to 0.0046 µM in assay [5] and 0.0175 µM in assay [6]. For the same molecule, the “Ratio (G101V/WT)” value in assay [6] is reported as 3.77. For the same molecule, in assay [7], the “TR_FRET EKI BCLxL/WT selectivty ratio” value was found to be 16.7.
